What was measured:
[1] = tested on: IGROV-1 (Ovarian Carcinoma); test: combination Emax (second highest fraction inhibited in the dose matrix, 72 h); higher = more inhibition; extreme values may be limits of the assay
Method in brief: (§1)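 Bliss excess equals the observed combination effect minus the expected value EA + EB − EA·EB, where EA and EB are the effects of each agent alone. Combination Emax is the second-highest inhibition within the matrix. Inhibition was scaled from CellTiter-Glo 2.0 luminescence, with 0 set by vehicle wells and 1 by blank wells, after 72 hours of two-drug dosing of cells plated in 1536-well plates.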

[2] = tested on: SUP-HD1 (Hodgkin's Lymphoma); test: as above
Method in brief: as §1

[3] = tested on: OCI-M1 (Acute Myeloid Leukemia); test: as above
Method in brief: as §1

[4] = tested on: OVKATE (Ovarian Carcinoma); test: as above
Method in brief: as §1

[5] = tested on: SK-MEL-24 (Melanoma); test: as above
Method in brief: as §1

[6] = tested on: NCI-H1975 (Lung Adenocarcinoma); test: as above
Method in brief: as §1

[7] = tested on: JJN-3 (Plasma Cell Myeloma); test: as above
Method in brief: as §1

[8] = tested on: RPMI-8402 (T-Lymphoblastic Leukemia); test: as above
Method in brief: as §1

[9] = tested on: Daudi (Burkitt's Lymphoma); test: Bliss excess, mean over the matrix (fraction); higher = more synergy
Method in brief: as §1

[10] = tested on: NCI-H1048 (Small Cell Lung Carcinoma); test: as above
Method in brief: as §1

[11] = tested on: IGROV-1 (Ovarian Carcinoma); test: as above
Method in brief: as §1

[12] = tested on: SBC-3 (Small Cell Lung Carcinoma); test: as above
Method in brief: as §1

[13] = tested on: HT-144 (Melanoma); test: as above
Method in brief: as §1

[14] = tested on: SUP-HD1 (Hodgkin's Lymphoma); test: as above
Method in brief: as §1

[15] = tested on: SK-N-DZ (Neuroblastoma); test: as above
Method in brief: as §1

[16] = tested on: RS4-11 (B-Lymphoblastic Leukemia); test: as above
Method in brief: as §1

[17] = tested on: NTERA-2-cl-D1 (Other Solid Carcinomas); test: as above
Method in brief: as §1

[18] = tested on: GRANTA-519 (B-Cell Non-Hodgkin's Lymphoma); test: as above
Method in brief: as §1

[19] = tested on: OVKATE (Ovarian Carcinoma); test: as above
Method in brief: as §1

[20] = tested on: TOV-21G (Ovarian Carcinoma); test: as above
Method in brief: as §1

Row | Structure (SMILES) | combination Emax [1] | combination Emax [2] | combination Emax [3] | combination Emax [4] | combination Emax [5] | combination Emax [6] | combination Emax [7] | combination Emax [8] | Bliss excess [9] | Bliss excess [10] | Bliss excess [11] | Bliss excess [12] | Bliss excess [13] | Bliss excess [14] | Bliss excess [15] | Bliss excess [16] | Bliss excess [17] | Bliss excess [18] | Bliss excess [19] | Bliss excess [20]
1 | CN(CCO)CC[C@H](CSc1ccccc1)Nc1ccc(S(=O)(=O)NC(=O)c2ccc(N3CCC([C@@H](O)c4ccccc4-c4ccc(Cl)cc4)CC3)cc2)cc1S(=O)(=O)C(F)(F)F [AZD4320] + C[C@@H]1COCCN1C2=NC(=NC(=C2)C3(CC3)[S@](=N)(=O)C)C4=C5C=CNC5=NC=C4 [AZD6738] (first compound max 1 µM, 7x7, partner max 10 µM) | 0.876 | 0.98 | 1 | 0.621 | 0.556 | 0.481 | 0.797 | 1 | -0.0403 | 0.0634 | -0.0353 | -0.0184 | -0.0385 | -0.0207 | -0.0559 | 0.026 | -0.0301 | -0.0075 | -0.0581 | -0.0224
2 | N#Cc1cnc(Nc2cc(NC[C@H]3CNCCO3)c(C(F)(F)F)cn2)cn1 [SRA737] + C=CCn1c(=O)c2cnc(Nc3ccc(N4CCN(C)CC4)cc3)nc2n1-c1cccc(C(C)(C)O)n1 [AZD1775] (first compound max 10 µM, partner max 1 µM) | – | – | – | 0.222 | 0.46 | – | – | 1 | – | – | – | 0.155 | – | – | – | – | 0.0209 | – | -0.0409 | –
3 | C[C@@H](c1ccc2nccn2c1)n1nnc2ncc(-c3cnn(C)c3)nc21 [Savolitinib] + Cc1c2c(nn1C)CSCc1cc(n(C)n1)CSc1cc(c3ccccc3c1)OCCCc1c(C(=O)O)n(C)c3c-2c(Cl)ccc13 [AZD5991] (first compound max 1 µM, 7x7, partner max 1 µM) | 0.157 | 0.62 | 0.186 | 0.144 | 0.225 | 0.146 | 0.992 | 0.502 | -0.0126 | 0.0012 | -0.0303 | -0.0321 | -0.054 | -0.05 | 0.002 | -0.0406 | -0.015 | -0.0338 | -0.0434 | -0.0111
4 | Cc1cc2ncnn2cc1Nc1ncc2c(n1)n(C1CCOCC1)c(=O)n2C [AZD7648] + C[C@@H]1COCCN1C2=NC(=NC(=C2)C3(CC3)[S@](=N)(=O)C)C4=C5C=CNC5=NC=C4 [AZD6738] (first compound max 10 µM, 7x7, partner max 10 µM) | 0.66 | 0.751 | 0.956 | 0.377 | 0.509 | 0.423 | 0.694 | 0.988 | 0.0285 | 0.0425 | -0.08 | 0 | 0.0349 | -0.0375 | -0.018 | -0.058 | 0.0533 | -0.0479 | 0.0232 | 0.002
5 | CN(CCO)CC[C@H](CSc1ccccc1)Nc1ccc(S(=O)(=O)NC(=O)c2ccc(N3CCC([C@@H](O)c4ccccc4-c4ccc(Cl)cc4)CC3)cc2)cc1S(=O)(=O)C(F)(F)F [AZD4320] + CCN(CCO)CCCOc1ccc2c(Nc3cc(CC(=O)Nc4cccc(F)c4)[nH]n3)ncnc2c1 [AZD2811] (first compound max 1 µM, 7x7, partner max 1 µM) | 0.266 | 0.966 | 0.988 | 0.347 | 0.226 | 0.411 | 0.904 | 0.999 | 0.0078 | 0.139 | 0.0206 | 0.0224 | 0.0304 | 0.0476 | 0.0087 | -0.0011 | 0.159 | 0.191 | -0.0204 | -0.0177
6 | Cc1cc2ncnn2cc1Nc1ncc2c(n1)n(C1CCOCC1)c(=O)n2C [AZD7648] + CN(C)CCCOc1ccc(-c2ccc3ncc4c(c3c2)n(C2CCOCC2)c(=O)n4C)cn1 [AZD0156] (first compound max 10 µM, 7x7, partner max 1 µM) | 0.584 | 0.199 | 0.173 | 0.35 | 0.28 | 0.398 | 0.17 | 0.382 | 0.0327 | 0.0121 | -0.0328 | 0.0332 | 0.0013 | -0.0306 | 0.038 | 0.0397 | -0.0248 | 0.0266 | -0.0132 | -0.0047
7 | CN(CCO)CC[C@H](CSc1ccccc1)Nc1ccc(S(=O)(=O)NC(=O)c2ccc(N3CCC([C@@H](O)c4ccccc4-c4ccc(Cl)cc4)CC3)cc2)cc1S(=O)(=O)C(F)(F)F [AZD4320] + CC(=O)O[C@H]1C(=O)[C@@]2(C)[C@H]([C@H](OC(=O)c3ccccc3)[C@]3(O)C[C@H](OC(=O)[C@H](O)[C@@H](NC(=O)c4ccccc4)c4ccccc4)C(C)=C1C3(C)C)[C@]1(OC(C)=O)CO[C@@H]1C[C@@H]2O [Paclitaxel] (first compound max 1 µM, 7x7, partner max 3 µM) | – | – | – | 0.629 | 0.888 | – | – | 1 | – | – | – | 0.0387 | – | – | – | – | 0.0025 | – | 0.113 | –
8 | CN(CCO)CC[C@H](CSc1ccccc1)Nc1ccc(S(=O)(=O)NC(=O)c2ccc(N3CCC([C@@H](O)c4ccccc4-c4ccc(Cl)cc4)CC3)cc2)cc1S(=O)(=O)C(F)(F)F [AZD4320] + C[C@@H](Nc1cc(F)cc(F)c1)c1cc(C(=O)N(C)C)cc2c(=O)cc(N3CCOCC3)oc12 [AZD8186] (first compound max 1 µM, 7x7, partner max 3 µM) | 0.832 | 0.96 | 1 | 0.438 | 0.772 | 0.421 | 0.497 | 0.994 | 0.0555 | 0.0388 | 0.042 | -0.0093 | 0.0944 | 0.0322 | -0.0302 | 0.0239 | 0.0543 | 0.0128 | -0.0277 | -0.0083
9 | Cc1cc2ncnn2cc1Nc1ncc2c(n1)n(C1CCOCC1)c(=O)n2C [AZD7648] + C=CCn1c(=O)c2cnc(Nc3ccc(N4CCN(C)CC4)cc3)nc2n1-c1cccc(C(C)(C)O)n1 [AZD1775] (first compound max 10 µM, partner max 1 µM) | 0.819 | 0.785 | 0.87 | 0.422 | 0.495 | 0.421 | 0.704 | 1 | -0.0101 | -0.0505 | -0.0431 | -0.0374 | 0.0458 | -0.0943 | 0.0207 | 0.0667 | -0.0791 | -0.0126 | -0.001 | -0.0672
10 | COc1cc2ncnc(Nc3ccc(F)c(Cl)c3)c2cc1OCCCN1CCOCC1 [Gefitinib] + CC(C)n1c(=O)n(C)c2cnc3cc(F)c(-c4ccc(OCCCN5CCCCC5)nc4)cc3c21 [AZD1390] (first compound max 10 µM, 7x7, partner max 0.3 µM) | – | 0.382 | 0.0417 | 0.155 | 0.246 | 0.419 | 0.236 | 0.56 | -0.0688 | -0.0556 | -0.0824 | -0.0501 | -0.0682 | -0.0683 | -0.0375 | -0.0484 | -0.0643 | -0.0689 | -0.0386 | -0.084
11 | N#Cc1cnc(Nc2cc(NC[C@H]3CNCCO3)c(C(F)(F)F)cn2)cn1 [SRA737] + CCc1c2c(nc3ccc(O)cc13)-c1cc3c(c(=O)n1C2)COC(=O)[C@]3(O)CC [SN-38] (first compound max 10 µM, 7x7, partner max 0.3 µM) | – | – | – | 0.138 | 0.73 | – | – | 1 | – | – | – | -0.0632 | – | – | – | – | -0.0004 | – | -0.045 | –
12 | N#Cc1cnc(Nc2cc(NC[C@H]3CNCCO3)c(C(F)(F)F)cn2)cn1 [SRA737] + Nc1ccn([C@@H]2O[C@H](CO)[C@@H](O)C2(F)F)c(=O)n1 [Gemcitabine] (first compound max 10 µM, 7x7, partner max 0.3 µM) | – | – | – | 0.27 | 0.814 | – | – | 1 | – | – | – | 0.0064 | – | – | – | – | 0.0301 | – | 0.0092 | –
13 | Cc1cc2ncnn2cc1Nc1ncc2c(n1)n(C1CCOCC1)c(=O)n2C [AZD7648] + COc1cc([C@@H]2c3cc4c(cc3[C@@H](O[C@@H]3O[C@@H]5CO[C@@H](C)O[C@H]5[C@H](O)[C@H]3O)[C@H]3COC(=O)[C@H]23)OCO4)cc(OC)c1O [Etoposide] (first compound max 10 µM, 7x7, partner max 10 µM) | – | – | – | 0.266 | 0.677 | – | – | 1 | – | – | – | 0.119 | – | – | – | – | 0.137 | – | -0.0214 | –
14 | C=CCn1c(=O)c2cnc(Nc3ccc(N4CCN(C)CC4)cc3)nc2n1-c1cccc(C(C)(C)O)n1 [AZD1775] + C1CN(CCC1(C(=O)N[C@@H](CCO)C2=CC=C(C=C2)Cl)N)C3=NC=NC4=C3C=CN4 [Capivasertib] (first compound max 3 µM, partner max 3 µM) | – | 0.736 | 0.974 | 0.322 | 0.503 | 0.714 | – | 1 | 0.0313 | -0.0301 | -0.0435 | -0.0786 | 0.0014 | -0.0378 | -0.0116 | 0.0201 | – | -0.0163 | -0.0239 | -0.0043
15 | C[C@@H](c1ccc2nccn2c1)n1nnc2ncc(-c3cnn(C)c3)nc21 [Savolitinib] + CN(CC[C@H](CSC1=CC=CC=C1)NC2=C(C=C(C=C2)S(=O)(=O)NC(=O)C3=CC=C(C=C3)N4CCC(CC4)[C@H](C5=CC=CC=C5C6=CC=C(C=C6)Cl)O)S(=O)(=O)C(F)(F)F)CCO [AZD4320] (first compound max 1 µM, 7x7, partner max 1 µM) | 0.219 | 0.941 | 0.993 | – | – | 0.178 | 0.357 | – | -0.0219 | 0.0144 | -0.0735 | – | -0.0287 | 0.0355 | -0.0035 | -0.0131 | – | -0.044 | – | -0.0216
